Laboratory results published in patent US10939678B2, “Adjuvant compositions and related methods for reducing herbicide volatility” (BOARD OF TRUSTEES OF MICHIGAN STATE UNIVERSITY, priority 2015, dated 2021).
Structures can show the parent of a compound that is named as a salt.

Assays:
[1] = approximate, by way of illustration; cited from earlier work
[2] = test system: soybean plants (PIONEER 92M92); experiment: Bioassay of herbicide volatility from sprayed wheat to soybean plants in plant growth chambers (visual soybean injury); assay type: in vivo; conditions: 1.12 kg a.i./ha, without any adjuvants
Excerpt: A wide range of soil, plant, environmental, and herbicide factors (e.g., vapor pressure and water solubility of herbicide, surface characteristics) can affect herbicide volatility from soils and plants. Comparison of the volatilization would be most readily visualized by appropriate bioassay systems. These examples illustrate a bioassay system for evaluating herbicide volatilization from plant substrates. In the bioassay system, a herbicide composition including a volatile growth regulator herbicide (2,4-D) and one or more adjuvants was applied foliarly to wheat plants (amber red wheat). Twenty minutes later, soybean plants (PIONEER 92M92 soybean plants) sensitive to the volatile growth regulator herbicide were placed in the middle of the sprayed wheat plants.
Measurement of herbicide volatility from wheat to soybean. Plant growth chambers formed from clear circular plastic containers (about 27 cm diameter) with a spacer pot in the middle were used to grow wheat plants (from amber red wheat seed) in a professional potting mix. […] The herbicide compositions were prepared and applied at a rate of 0.84 kg a.i./ha (active ingredient per hectare) at 93.5 L/ha (10 gal/acre) and 172 kPa (25 psi) using a flat fan nozzle tip (TEEJET XR8001E or equivalent; available from Spraying Systems, Co., Wheaton, Ill.).
Soybean plants (PIONEER 92M92) were seeded into 10 cm diameter round pots. A single pot with soybean plants was placed in the center of each circular plastic container 20 minutes after spraying the wheat with the respective herbicide treatment composition (i.e., with the soybean plant pot replacing the spacer pot present during wheat growth and herbicide composition application). Open clear plastic cylinders were then taped to the top of the circular containers and placed in a greenhouse. The open clear plastic cylinders were tall enough to add an open circumferential wall (about 28 cm high and having a circular top opening about 20 cm in diameter) to the plant growth chambers (i.e., with the height being relative to the soil surface for the wheat and soybean plants). Visual evaluation of soybean injury was evaluated 7, 10, 14, and 21 days after treatment/application (DAT) of the herbicide composition and continued growth under greenhouse conditions. Data were subjected to analysis of variance using PROC GLM in SAS and the results are the means of two experiments with four replications in each.
Similar trials were also performed using herbicide compositions with volatile dicamba volatile growth regulator herbicides (dimethylamine salt of dicamba (BANVEL) and diglycolamine salt of dicamba (CLARITY)) at 1.12 kg a.i./ha in place of 2,4-D and without any adjuvants.

Row | Structure (SMILES) | vapor pressure [1] | % injury of soybean plants from dicamba volatility ([2]; 7-DAT) | % injury of soybean plants from dicamba volatility ([2]; 14-DAT) | % injury of soybean plants from dicamba volatility ([2]; 21-DAT)
1 | CCCCC(CC)COC(=O)COc1ccc(Cl)cc1Cl (stereo not drawn) [2,4-D 2-ethylhexyl ester] | ~4.8×10^−4 Pa | – | – | –
2 | CCCCOCCOC(=O)COc1ccc(Cl)cc1Cl [2,4-D butoxyethyl ester] | ~3.2×10^−4 Pa | – | – | –
3 | CC(C)OC(=O)COc1ccc(Cl)cc1Cl [2,4-D isopropyl ester] | ~1.9×10^1 Pa | – | – | –
4 | COc1c(Cl)ccc(Cl)c1C(=O)O [diglycolamine salt of dicamba, 3,6-dichloro-2-methoxybenzoic acid] | – | about 28% | about 31% | about 41%
5 | COc1c(Cl)ccc(Cl)c1C(=O)O [dimethylamine salt of dicamba, 3,6-dichloro-2-methoxybenzoic acid] | – | ~39% | ~39% | about 41%
